For data set [1] the following is noted: in vivo, po, 6 mg. The procedure:
The study compared various dose routes: sublingual (SL), per oral tablet (PO), subcutaneous (SC) and intravenous (IV). […] An Oral Irritation assessment was performed (SL film group): Predose (0) and 24 hr postdose by Draize scoring.

The conditions of data set [2]: PBS (pH 7.4), n=6; cited from earlier work.

The values below come from patent US20240148673A1 (priority 2016, published 2024).

Each structure is given as a SMILES string. Read-outs that look alike come from different tables or passages of the source.

Consider `CNC[C@H](O)c1ccc(OC(=O)C(C)(C)C)c(OC(=O)C(C)(C)C)c1` (racemic) [dipivefrin], for which the “DIPI Tmax” value in data set [1] amounted to 0 min.
For `CNC[C@H](O)c1ccc(O)c(O)c1` [Epinephrine Bitartrate], the average flux is 0 μg/cm2*min (30 min, 16 mg/mL); 0.2604 μg/cm2*min (45 min, 16 mg/mL); 0.3125 μg/cm2*min (60 min, 16 mg/mL); 0.6727 μg/cm2*min (120 min, 16 mg/mL); 1.076 μg/cm2*min (180 min, 16 mg/mL); 1.029 μg/cm2*min (240 min, 16 mg/mL). The average flux is 1.25 μg/cm2*min (300 min, 16 mg/mL) and 1.385 μg/cm2*min (360 min, 16 mg/mL). Moreover, the “Average Steady State flux” value was found to be 0.167 ug/cm2*min (360 min, 4 mg/mL); 0.466 ug/cm2*min (360 min, 8 mg/mL); 1.317 ug/cm2*min (360 min, 16 mg/mL); 2.942 ug/cm2*min (360 min, 100 mg/mL).
Regarding `CC(C)NCC(O)COc1cccc2ccccc12` (centres unmarked) [PP], the “C0 of saturated solution” value in data set [2] is 588005 ± 5852 µg/mL.
